Patent publication US20250195502A1, “APPLICATION OF TETRACYCLIC COMPOUND IN TREATMENT OF TUMORS” (SHANGHAI SHIJIANG BIOTECHNOLOGY CO., LTD, priority 2022, published 2025)

These molecules were tested on D341 Med (cerebellar medulloblastoma cell) (assay: Cell viability assay (Promega CellTiter-Glo), inhibitory effect on D341 Med). Conditions: Homo sapiens, 72 h, 3 days of culture, read-out: inhibitory effect on brain cell line D341 Med (IC50).
Assay type: cell-based
Protocol: (§1) The inhibitory effect of the compounds prepared in the Examples of the present invention on various brain tumor cell lines was detected using cell viability assay reagent.
(§2) Cell viability was detected using the Promega CellTiter-Glo kit, cell viability was determined by directly measuring intracellular ATP content. In the experiment, the IC50 value of the compounds prepared in the Examples of the present invention on various brain tumor cell lines was detected.
(§3) Each tumor cell was cultured in relevant medium. After cell passage, the gradient diluted compounds prepared in the Examples of the present invention was added. After 3 days of culture, the relevant IC50 (50% inhibiting concentration) was measured. The name, source and culture conditions of each tumor cell line were as follows:
Cell line D341 Med (ATCC, No. HTB-187) was cultured in 20% fetal bovine serum-containing EMEM medium (+P/S).

SMILES | IC50
COc1ccc2cc3[n+](cc2c1OCCCCCCCl)CCc1cc2c(cc1-3)OCO2 [compound AB31731] | 340 nM

The molecules below were run on NCI-H82 (human small cell lung cancer cell) (assay: Cell viability assay (Promega CellTiter-Glo), inhibitory effect on NCI-H82). Conditions: 72 h, 3 days of culture.
Assay type: cell-based
Protocol: (§4) The inhibitory effect of the compounds prepared in the Examples of the present invention on various tumor cell lines was detected using cell viability assay reagent.
(§5) Cell viability was detected using the Promega CellTiter-Glo kit, cell viability was determined by directly measuring intracellular ATP content. In the experiment, the ICso value of the compounds prepared in the Examples of the present invention on various tumor cell lines was detected.
as §3
Cell line NCI-H82 (ATCC, No. HTB-175) was cultured in 10% fetal bovine serum-containing RPMI1640 medium (+P/S).

SMILES | IC50
COc1ccc2cc3[n+](cc2c1OCCCCCCCl)CCc1cc2c(cc1-3)OCO2 [compound AB31731] | 520 nM

Each molecule was assayed on SW48 (human colon adenocarcinoma cell) (assay: Cell viability assay (Promega CellTiter-Glo), inhibitory effect on SW48). Conditions: 72 h, 3 days of culture.
Assay type: cell-based
Protocol: as §4, §5, §3
Cell line SW48 (ATCC, No. CCL-231) was cultured in 10% fetal bovine serum-containing Leibovitz's L-15 medium (+P/S).

SMILES | IC50
COc1ccc2cc3[n+](cc2c1OCCCCCCCl)CCc1cc2c(cc1-3)OCO2 [compound AB31731] | 620 nM

The molecules below were run on MDA-MB-453 (breast cancer cell) (assay: Cell viability assay (Promega CellTiter-Glo), inhibitory effect on MDA-MB-453). Conditions: Homo sapiens, 72 h, 3 days of culture.
Assay type: cell-based
Protocol: as §4, §5, §3
Cell line MDA-MB-453 (ATCC, No. HTB-131) was cultured in 10% fetal bovine serum-containing Leibovitz's L-15 medium (+P/S).

SMILES | IC50
COc1ccc2cc3[n+](cc2c1OCCCCCCCl)CCc1cc2c(cc1-3)OCO2 [compound AB31731] | 220 nM

The molecules below were run on NB-1 (brain neuroblastoma cell) (assay: Cell viability assay (Promega CellTiter-Glo), inhibitory effect on NB-1). Conditions: Homo sapiens, 72 h, 3 days of culture, read-out: inhibitory effect on brain cell line NB-1 (IC50).
Assay type: cell-based
Protocol: as §1, §2, §3
Cell line NB-1 (ATCC, No. HTB-131) was cultured in 10% fetal bovine serum-containing Leibovitz's L-15 medium (+P/S).

SMILES | IC50
COc1ccc2cc3[n+](cc2c1OCCCCCCCl)CCc1cc2c(cc1-3)OCO2 [compound AB31731] | 70 nM

The molecules below were run on Con-NCI-H82 cell (NCI-H82 transfected with empty virus vector) (assay: Cell viability assay (Promega CellTiter-Glo), inhibitory effect on Con-NCI-H82 cell). Conditions: Homo sapiens; NCI-H82 transfected with empty virus vector (control); CellTiter-Glo; read-out: inhibitory effect on Con-NCI-H82 (IC50).
Assay type: cell-based
Protocol: (§6) The role of expression level of NNMT gene and DNMT1 in the sensitivity of NCI-H82 cell to the compounds prepared in the Examples of the present invention was determined
(§7) The expression of NNMT protein in NCI-H82 cell was overexpressed by inserting the NNMT gene into NCI-H82 cell using a viral vector, and the NNMT protein-overexpressing NCI-H82 cell (ov-NNMT NCI-H82 cell) was obtained. The expression of DNMT1 in NCI-H82 cell was knocked down transfecting (the by shRNA nucleotide sequence of shRNA was […] TTTTTG (SEQ ID No: 2)) using a viral vector, and the NCI-H82 cell with low expression of DNMT1 protein (sh-DNMT1 NCI-H82 cell) was obtained. The control NCI-H82 cell (Con-NCI-H82 cell) was obtained by transfecting NCI-H82 cell with empty virus vector without carrying NNMT gene and shRNA. The expressing content of NNMT protein and DNMT1 protein in the Con-NCI-H82 cell, the expressing content of NNMT protein in the ov-NNMT NCI-H82 cell, and the expressing content of DNMT1 protein in the sh-DNMT1 NCI-H82 cell were detected using Western Blot assay (as shown in FIG. 15 and FIG. 16), it could be seen from FIG. 15 and FIG. 16 that the NNMT protein was overexpressed in the ov-NNMT NCI-H82 cell and the expression of DNMT1 protein was knocked down (i.e, low expression) in the sh-DNMT1 NCI-H82 cell compared with the expression level of NNMT protein and DNMT protein in the Con-NCI-H82 cell.

SMILES | IC50
COc1ccc2cc3[n+](cc2c1OCCCCCCCl)CCc1cc2c(cc1-3)OCO2 [compound AB31731] | 520 nM

What follows are molecules tested on sh-DNMT1 NCI-H82 cell (DNMT1 knocked down NCI-H82) (assay: Cell viability assay (Promega CellTiter-Glo), inhibitory effect on sh-DNMT1 NCI-H82 cell). Conditions: Homo sapiens, NCI-H82 with DNMT1 knocked down by shRNA.
Assay type: cell-based
Protocol: as §6, §7

SMILES | IC50
COc1ccc2cc3[n+](cc2c1OCCCCCCCl)CCc1cc2c(cc1-3)OCO2 [compound AB31731] | 1660 nM

Each molecule was assayed on SF126 (human glioblastoma multiforme cell) (assay: Cell viability assay (Promega CellTiter-Glo), inhibitory effect on SF126). Conditions: 72 h, SF-126, 3 days of culture, Table 3, read-out: inhibitory effect on SF-126 (IC50).
Assay type: cell-based
Protocol: as §4, §5, §3
Cell line SF126 (JCRB, No. IFO50286) was cultured in 10% fetal bovine serum-containing EMEM medium (+P/S).
as §1, §2

SMILES | IC50
COc1ccc2cc3[n+](cc2c1OCCCCCCCl)CCc1cc2c(cc1-3)OCO2 [compound AB31731] | 6190 nM

Same assay, conditions: SF-126, 72 h, SF126, 3 days of culture, Table 4, read-out: inhibitory effect on brain cell line SF126 (IC50)

SMILES | IC50
COc1ccc2cc3[n+](cc2c1OCCCCCCCl)CCc1cc2c(cc1-3)OCO2 [compound AB31731] | 6190 nM

What follows are molecules tested on CFPAC-1 (human pancreatic cancer cell) (assay: Cell viability assay (Promega CellTiter-Glo), inhibitory effect on CFPAC-1). Conditions: 72 h, 3 days of culture.
Assay type: cell-based
Protocol: as §4, §5, §3
Cell line CFPAC-1 (ATCC, No. CRL-1918) was cultured in 10% fetal bovine serum-containing IMDM medium (+P/S).

SMILES | IC50
COc1ccc2cc3[n+](cc2c1OCCCCCCCl)CCc1cc2c(cc1-3)OCO2 [compound AB31731] | 8980 nM

What follows are molecules tested on GB-1 (human brain glioblastoma cell) (assay: Cell viability assay (Promega CellTiter-Glo), inhibitory effect on GB-1). Conditions: 72 h, 3 days of culture, Table 3, read-out: inhibitory effect on GB-1 (IC50).
Assay type: cell-based
Protocol: as §4, §5, §3
Cell line GB-1 (JCRB, No. IFO50489) was cultured in 10% fetal bovine serum-containing DMEM medium (+P/S).
as §1, §2

SMILES | IC50
COc1ccc2cc3[n+](cc2c1OCCCCCCCl)CCc1cc2c(cc1-3)OCO2 [compound AB31731] | 6640 nM

Same assay, conditions: 72 h, 3 days of culture, Table 4, read-out: inhibitory effect on brain cell line GB-1 (IC50)

SMILES | IC50
COc1ccc2cc3[n+](cc2c1OCCCCCCCl)CCc1cc2c(cc1-3)OCO2 [compound AB31731] | 6640 nM

The molecules below were run on 786-O (clear cell renal cell adenocarcinoma cell) (assay: Cell viability assay (Promega CellTiter-Glo), inhibitory effect on 786-O). Conditions: Homo sapiens, 786-0, 72 h, 3 days of culture.
Assay type: cell-based
Protocol: as §4, §5, §3
Cell line 786-0 (ATCC, No. CRL-1932) was cultured in 10% fetal bovine serum-containing RPMI1640 medium (+P/S).

SMILES | IC50
COc1ccc2cc3[n+](cc2c1OCCCCCCCl)CCc1cc2c(cc1-3)OCO2 [compound AB31731] | 3760 nM

What follows are molecules tested on G-401 (human renal carcinoma Wilms cell) (assay: Cell viability assay (Promega CellTiter-Glo), inhibitory effect on G-401). Conditions: 72 h, 3 days of culture.
Assay type: cell-based
Protocol: as §4, §5, §3
Cell line G-401 (ATCC, No. CRL-1441) was cultured in 10% fetal bovine serum-containing McCoy's 5a medium (+P/S).

SMILES | IC50
COc1ccc2cc3[n+](cc2c1OCCCCCCCl)CCc1cc2c(cc1-3)OCO2 [compound AB31731] | 770 nM

The molecules below were run on Kelly (brain neuroblastoma cell) (assay: Cell viability assay (Promega CellTiter-Glo), inhibitory effect on Kelly). Conditions: Homo sapiens, 72 h, 3 days of culture, read-out: inhibitory effect on brain cell line Kelly (IC50).
Assay type: cell-based
Protocol: as §1, §2, §3
Cell line Kelly (ECACC, No. 92110411) was cultured in 10% fetal bovine serum and 2 mM glutamine-containing RPMI1640 medium.

SMILES | IC50
COc1ccc2cc3[n+](cc2c1OCCCCCCCl)CCc1cc2c(cc1-3)OCO2 [compound AB31731] | 860 nM

Each molecule was assayed on ov-NNMT NCI-H82 cell (NNMT protein-overexpressing NCI-H82) (assay: Cell viability assay (Promega CellTiter-Glo), inhibitory effect on ov-NNMT NCI-H82 cell). Conditions: Homo sapiens.
Assay type: cell-based
Protocol: as §6, §7

SMILES | IC50
COc1ccc2cc3[n+](cc2c1OCCCCCCCl)CCc1cc2c(cc1-3)OCO2 [compound AB31731] | 1320 nM
